Assay results from publication PMC9293083 (Chemistry (Weinheim an Der Bergstrasse, Germany), 2021).

How the values were obtained:
A549 cells = type: cell-based, human
[1] = test system: lung mouse embryonic fibroblasts (LMEFs); type: cell-based; details: 10 μM, 22 h
A549 (lung carcinoma) [2] = test system: A549 (lung carcinoma)
pBR322 plasmid DNA = type: binding
A549 (lung carcinoma) [3] = details: read-out: IC50 A549; cited from earlier work
HeLa (cervix carcinoma) = details: read-out: IC50 HeLa; cited from earlier work
tubulin = type: cell-based, human

With `CN(C)c1ccc(-c2nc3ccccc3s2)cc1` [Me2N‐pbtH, 2‐(4‐dimethylaminophenyl)benzothiazole] the “cellular internalization (intracellular green fluorescence)” value (A549 cells) was “successful internalization”, the “colocalization with Golgi apparatus marker BODIPY TR C5 ceramide” value (A549 cells) was “most of the signal colocalized with the Golgi apparatus marker” and the “time to bright green fluorescence (internalization)” value (A549 cells) was 2 to 5 min. For the same compound, the “accumulation in endosomal/lysosomal compartments (LysoTracker)” value [1] was “minor accumulation in the endosomal/lysosomal compartments”, the “accumulation in mitochondria (MitoTracker)” value [1] was “lack of accumulation in mitochondria” and the “cytotoxic effects against A549 cells” value (A549 (lung carcinoma) [2]) was “did not show cytotoxic effects”.
For `N.N.[Cl][Pt][Cl]` [cisplatin, reference compound], the “electrophoretic mobility of plasmid forms” value (pBR322 plasmid DNA) is given as “electrophoretic shift”, the IC50 (A549 (lung carcinoma) [3]) is given as 6.45 ± 0.47 µM and the IC50 (HeLa (cervix carcinoma)) is given as 13.6 ± 0.99 µM.
For `COC(=O)Nc1nc2ccc(C(=O)c3cccs3)cc2[nH]1` [nocodazole, reference compound], the “tubulin depolymerization / microtubule disassembly” value (tubulin) was “notable microtubule disassembly”.
